“Also recorded” adds a separate entry of the source. Read-outs that look alike come from different tables or passages of the source.

We go through 3 compounds from US9402821B2, “Methods and pharmaceutical compositions for treatment of cystic fibrosis” (INSERM (Institut National de la sante et de la Recherche …, priority 2012, dated 2016).

The test system of experiment [1] is NF-κB transcriptional activity. Put plainly: NF-κB firefly luciferase reporter assay, TNFα-stimulated cells. The experiment is classed as cell-based. The following applies: TNFα 10 ng/ml. The protocol: All cells were transiently transfected by NF-κB firefly luciferase reporter and renilla luciferase reference. A. HeLa control cells (Ctr) were pre-treated with diluent (0.5%) or different doses of sulindac for 1 h and stimulated for 1 h with 10 ng/ml TNFα. After removal of TNFα, cells were incubated for 4 h with sulindac. Luciferase activity was analysed in protein extract. The NF-κB transcriptional activity in cells treated with sulindac+TNFα was expressed in percent of diluent+TNFα. B. Hela cells Wt, DF508 and Ctr were pre-treated with diluent (0.5%), ibuprofen (500 μM) or sulindac (500 μM) for 1 h and stimulated for 1 h with […] TNFα. After removal of TNFα, cells were incubated for 4 h with pharmacological treatment. The NF-κB transcriptional activity in cells treated with ibuprofen+TNFα and sulindac+TNFα was expressed in percent of diluent+TNFα. Results of at least three independent experiments, means±SEM. Unilateral paired t test: * p<0.02
All cells were pre-treated with diluent (0.5%), sulindac ([…]) or sulindac sulfone (250 μM) for 1 h and stimulated for 1 h with 10 ng/ml TNFα. […]
Plasmid Constructs and Transient Transfection To assay the transcriptional activity of NF-κB, pNF-κBLuc, a luciferase reporter plasmid containing five sequential NF-κB binding sites upstream of a minimum promoter element, NF-κB-Luc (Stratagene), was used. Transcriptional activity of the IL-8 promoter was evaluated with reporter constructs consisting of the IL-8 promoter (−133 bp from the transcription start site) fused to the Luciferase gene, kindly provided by Naofumi Mukaida. […]
(§1) Cells were lysed with the Passive Lysis Buffer (Promega), and luciferase activity in the cellular extracts was determined by the Dual Luciferase Assay System (Promega) using a luminometer (Tristar; Berthold). The results were normalized to those obtained with the Renilla luciferase reference plasmid used to control the transfection efficiency, and the values were expressed as luminescence intensity (Luciferase/Renilla). […]
The transcriptional activity of NF-κB and IL-8 promoter was measured as described before. […]
(Reporter assays use an easily measured gene product as a stand-in for the process of interest.)

Experiment [2] relates to NF-κB transcriptional activity. The following applies: CF cells; recent study [5]; cited from earlier work.
The test system of the next experiment is IL-8 production. Conditions: CF cells; recent study [5]; cited from earlier work.
The target in a further experiment is CFTR (Homo sapiens, UniProt P13569). Kind of experiment: CFTR maturation by Western blot of membrane extracts. The experiment is classed as cell-based. The following applies: 500 μM. Also noted: expressed in transfected cells. The protocol: B. Chloride activity in HeLa Wt cells was measured by MQAE assay, after 3 h of treatment by NSAID (500 μM) or diluent. CFTR activity was expressed in rate of UFA/sec, calculated by difference between ((Ft−F0)/t) with CFTR induction and ((Ft−F0)/t) without CFTR induction. […] C. Primary culture of human nasal epithelial cell (HNEC) grown on Snapwell filters (air-liquid interface) were exposed basolaterally to sulindac (500 μM) or vehicle for 2 h and immediately mounted into a voltage-clamp system to bioelectric measurements. Short circuit current was measured with addition of amiloride to evaluated amiloride sensitive transport or with forskolin and IBMX for induced cAMP-dependent Cl secretion.
To study the CFTR protein present at the cell membrane, a protocol of purification by differential centrifugations was used. CFTR wt and delta F508 HeLa cells (2×10^5 cells/cm^2) were lysed with hypotonic lysis buffer (10 mM de KCl, 1 mM de MgCl2, 10 mM Hepes pH 7, 4 and protease inhibitor). Mechanic lysis of cells was realized with minimum 10 strokes of a 26G syringe. Samples were centrifuged 10 min at 3000 g to eliminate cellular fragments and nuclear fraction in the pellet. Then supernatant was centrifuged 45 min at 50 000 g. The pellets with cellular membrane were resolubilized in RIPA buffer.
Aliquots of membrane cell extracts (30 μg protein) were separated by 7% SDS-PAGE and transferred on PVDF membrane. The western blots were probed with mouse monoclonal antibodies specific for CFTR (MM13-4, Millipore) 2 h at room temperature.
Background: In western blotting, separated proteins are transferred to a membrane and probed.

In a further experiment the test system is cyclooxygenase. The following applies: cited from earlier work.
The next experiment concerns IL-8 promoter. Put plainly: IL-8 promoter luciferase reporter / IL-8 mRNA qPCR, TNFα-stimulated cells. The experiment is classed as cell-based. The following applies: 250 μM; TNFα 10 ng/ml; HeLa CFTR wt and CFTR DF508 (FIG. 8B). The protocol: Cells were transiently transfected by the short IL-8 promoter-firefly luciferase reporter and renilla luciferase reference and inflammation was induced by 10 ng/ml TNFα for 1 h. A. HeLa cells were pre-treated with diluent or different doses of sulindac 1 h before inflammation induction and 4 h after. IL-8 promoter activity in cells treated with sulindac+TNFα was expressed in percent of diluent+TNFα. B. After treatment, HeLa Ctr cells were lysed with TRIzol (Invitrogen). Total RNA was extracted, and 1 μg of total RNA was reverse transcribed with a reverse transcription kit. IL-8 mRNA expression was quantified by real-time quantitative PCR (qPCR). The comparative threshold cycle (CT) method was used for relative quantification of PCR products after IL-8 was normalised to TBP (ΔCt=CtIL-8−CtTBP). […] C After treatment, IL-8 in supernatant was measured by ELISA. The IL-8 stimulation of cells treated with test drug +TNFα were expressed as fold compared to drug −TNFα. […]
as §1

Chain of CFTR (P13569 whole entry): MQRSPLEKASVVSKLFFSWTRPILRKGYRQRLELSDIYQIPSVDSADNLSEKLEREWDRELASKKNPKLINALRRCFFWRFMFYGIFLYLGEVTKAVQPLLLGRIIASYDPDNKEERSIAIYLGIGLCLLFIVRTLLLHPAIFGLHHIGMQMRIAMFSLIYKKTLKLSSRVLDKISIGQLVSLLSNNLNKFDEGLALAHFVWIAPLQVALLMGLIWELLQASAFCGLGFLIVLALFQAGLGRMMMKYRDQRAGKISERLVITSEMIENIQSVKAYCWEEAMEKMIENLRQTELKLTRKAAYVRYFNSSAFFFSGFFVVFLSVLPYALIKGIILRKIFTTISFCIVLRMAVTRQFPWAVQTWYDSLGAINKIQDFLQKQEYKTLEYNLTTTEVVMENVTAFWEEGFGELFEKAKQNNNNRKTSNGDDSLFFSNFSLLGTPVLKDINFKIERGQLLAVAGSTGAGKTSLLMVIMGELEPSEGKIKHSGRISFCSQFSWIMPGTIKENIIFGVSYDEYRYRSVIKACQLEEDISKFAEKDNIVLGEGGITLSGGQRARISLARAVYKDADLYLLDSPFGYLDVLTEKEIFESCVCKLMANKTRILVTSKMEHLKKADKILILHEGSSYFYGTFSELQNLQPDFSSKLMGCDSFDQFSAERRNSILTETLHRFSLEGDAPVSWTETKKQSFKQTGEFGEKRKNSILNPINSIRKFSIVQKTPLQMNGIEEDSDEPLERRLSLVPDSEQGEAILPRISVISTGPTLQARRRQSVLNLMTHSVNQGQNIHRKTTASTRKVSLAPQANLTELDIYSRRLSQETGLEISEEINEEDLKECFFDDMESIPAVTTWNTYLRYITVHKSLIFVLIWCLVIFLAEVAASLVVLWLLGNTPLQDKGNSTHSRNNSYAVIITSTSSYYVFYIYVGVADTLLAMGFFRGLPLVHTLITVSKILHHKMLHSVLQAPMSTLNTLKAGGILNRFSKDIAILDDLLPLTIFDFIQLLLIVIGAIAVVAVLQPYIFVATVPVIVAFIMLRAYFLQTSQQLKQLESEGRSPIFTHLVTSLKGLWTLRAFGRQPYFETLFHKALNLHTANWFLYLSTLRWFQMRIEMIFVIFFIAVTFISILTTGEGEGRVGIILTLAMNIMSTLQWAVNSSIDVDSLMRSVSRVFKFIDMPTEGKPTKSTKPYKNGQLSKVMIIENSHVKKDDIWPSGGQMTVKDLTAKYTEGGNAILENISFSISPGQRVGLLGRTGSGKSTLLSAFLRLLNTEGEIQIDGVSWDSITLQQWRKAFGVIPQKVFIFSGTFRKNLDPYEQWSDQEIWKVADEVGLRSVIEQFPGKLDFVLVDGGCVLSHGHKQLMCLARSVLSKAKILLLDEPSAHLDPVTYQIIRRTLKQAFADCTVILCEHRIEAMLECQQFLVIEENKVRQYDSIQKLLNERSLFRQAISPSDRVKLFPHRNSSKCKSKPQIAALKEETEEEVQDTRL

For the compound `CC(C)Cc1ccc(C(C)C(=O)O)cc1` (stereo not drawn) [ibuprofen], the “transcriptional activity of NF-κB” value was “inhibits transcriptional activity of NF-κB similar to ibuprofen” in experiment [1] (BEAS-2B and HeLa cells with wt or deltaF508-CFTR (FIGS. 1A, B)); “inhibits the transcriptional activity of NF-κB” in experiment [2]. The IL-8 production entry in the experiment on IL-8 production is “not accompanied by a decreased of IL-8 production”. The “Ratio CFTR C/C + B (%)” value on CFTR (HeLa CFTR WT, Ctr. 65.1) was 80.6%. Further, the “mature form of CFTR (Western blot)” value on CFTR (WT-CFTR HeLa cells) is recorded as “significant increase of mature form of CFTR”.
Turning to `CSc1ccc(/C=C2/C(C)=C(CC(=O)O)c3cc(F)ccc32)cc1` [sulindac sulfide], the inhibition of cyclooxygenase entry with cyclooxygenase was “inhibits cyclooxygenase activity”.
Regarding `C=S(C)(=O)c1ccc(/C=C2/C(C)=C(CC(=O)O)c3cc(F)ccc32)cc1` (stereo not drawn) [sulindac sulfone], in experiment [1] (250 μM, HeLa CFTR wt and CFTR DF508 (FIG. 8A)), the NF-κB transcriptional activity result is reported as “inhibits the transcriptional activity of NF-κB”. Also, the IL-8 promoter activity result in the experiment on IL-8 promoter is reported as “at least as effective as sulindac; also recorded: inhibits”. In the experiment on cyclooxygenase, the inhibition of cyclooxygenase result was “inactif on COX; also recorded: does not inhibit cyclooxygenase”.
